Reference: ChEMBL document CHEMBL1157528, “Mixed tetraoxanes containing the acetone subunit as antimalarials” (Bioorg Med Chem, 2008)
Calls of active or inactive are those of the source. The calls are words filed in the database; no cut-off is given here.

Columns and labels:
Plasmodium falciparum [1] = assay: Relative activity against Plasmodium falciparum W2 as ratio of IC90 to IC50; format: functional
Plasmodium falciparum [2] = assay: microbe, parasite or virus in culture; settings: RCS
Description: Antimalarial activity against chloroquine-resistant, mefloquine-sensitive Plasmodium falciparum RCS

Plasmodium falciparum [3] = assay: Relative activity against Plasmodium falciparum TM91C235 as fold-lower IC90/IC50 ratio relative to mefloquine
[4] = Metabolic stability in human liver microsomes assessed as half life at 10 uM; format: ADME, Microsome
[5] = Metabolic stability in mouse liver microsomes assessed as half life at 10 uM; format: ADME, Microsome
Plasmodium falciparum [6] = assay: microbe, parasite or virus in culture; settings: D6
Description: Antimalarial activity against chloroquine and pyrimethamine-sensitive Plasmodium falciparum D6

Plasmodium falciparum [7] = assay: microbe, parasite or virus in culture; settings: W2
Description: Antimalarial activity against chloroquine and pyrimethamine-resistant Plasmodium falciparum W2

Plasmodium berghei [8] = assay: Antimalarial activity as survival time against Plasmodium berghei KBG173 infected CD1 mice (Mus musculus) at 160 mg/kg/day subcutaneous dose; format: functional
Plasmodium berghei [9] = assay: Antimalarial activity as survival time against Plasmodium berghei KBG173 infected CD1 mice (Mus musculus) at 80 mg/kg/day subcutaneous dose; format: functional
Plasmodium berghei [10] = assay: Antimalarial activity against Plasmodium berghei KBG173 infected CD1 mice (Mus musculus) assessed as survival time at 80 mg/kg/day, subcutaneously administered on day 3 twice a day; format: functional; settings: route subcutaneous
Plasmodium berghei [11] = assay: Antimalarial activity as reduced parasitaemia at day 17 against Plasmodium berghei KBG173 infected CD1 mice (Mus musculus) at 320 mg/kg/day peroral dose; format: functional; parameters: scale not given: the % may be the effect or the level left; settings: route oral
Plasmodium berghei [12] = assay: Antimalarial activity as reduced parasitaemia at day 20 against Plasmodium berghei KBG173 infected CD1 mice (Mus musculus) at 320 mg/kg/day peroral dose; format: functional; parameters: scale not given: the % may be the effect or the level left; settings: route oral
Plasmodium berghei [13] = assay: Antimalarial activity as reduced parasitaemia after 24 days against Plasmodium berghei KBG173 infected CD1 mice (Mus musculus) at 320 mg/kg/day peroral dose; format: functional; parameters: scale not given: the % may be the effect or the level left; settings: route oral
Plasmodium berghei [14] = assay: Antimalarial activity as reduced parasitaemia after 27 days against Plasmodium berghei KBG173 infected CD1 mice (Mus musculus) at 320 mg/kg/day peroral dose; format: functional; parameters: scale not given: the % may be the effect or the level left; settings: route oral
Plasmodium berghei [15] = assay: Antimalarial activity as reduced parasitaemia after 31 days against Plasmodium berghei KBG173 infected CD1 mice (Mus musculus) at 320 mg/kg/day peroral dose; format: functional; parameters: scale not given: the % may be the effect or the level left; settings: route oral
Plasmodium berghei [16] = assay: Antimalarial activity as reduced parasitaemia after 10 days against Plasmodium berghei KBG173 infected CD1 mice (Mus musculus) at 40 mg/kg/day subcutaneous dose; format: functional; parameters: scale not given: the % may be the effect or the level left
Plasmodium berghei [17] = assay: Antimalarial activity as reduced parasitaemia after 13 days against Plasmodium berghei KBG173 infected CD1 mice (Mus musculus) at 40 mg/kg/day subcutaneous dose; format: functional; parameters: scale not given: the % may be the effect or the level left
Plasmodium berghei [18] = assay: Antimalarial activity as reduced parasitaemia after 17 days against Plasmodium berghei KBG173 infected CD1 mice (Mus musculus) at 40 mg/kg/day subcutaneous dose; format: functional; parameters: scale not given: the % may be the effect or the level left
Plasmodium berghei [19] = assay: Antimalarial activity as reduced parasitaemia after 20 days against Plasmodium berghei KBG173 infected CD1 mice (Mus musculus) at 40 mg/kg/day subcutaneous dose; format: functional; parameters: scale not given: the % may be the effect or the level left
Plasmodium berghei [20] = assay: Antimalarial activity as reduced parasitaemia after 24 days against Plasmodium berghei KBG173 infected CD1 mice (Mus musculus) at 40 mg/kg/day subcutaneous dose; format: functional; parameters: scale not given: the % may be the effect or the level left
Plasmodium berghei [21] = assay: Antimalarial activity as reduced parasitaemia after 27 days against Plasmodium berghei KBG173 infected CD1 mice (Mus musculus) at 40 mg/kg/day subcutaneous dose; format: functional; parameters: scale not given: the % may be the effect or the level left
Plasmodium berghei [22] = assay: Antimalarial activity as reduced parasitaemia after 31 days against Plasmodium berghei KBG173 infected CD1 mice (Mus musculus) at 40 mg/kg/day subcutaneous dose; format: functional; parameters: scale not given: the % may be the effect or the level left
Plasmodium berghei [23] = assay: Antimalarial activity as reduced parasitaemia after 10 days against Plasmodium berghei KBG173 infected CD1 mice (Mus musculus) at 20 mg/kg/day subcutaneous dose; format: functional; parameters: scale not given: the % may be the effect or the level left
Plasmodium berghei [24] = assay: Antimalarial activity as reduced parasitaemia after 13 days against Plasmodium berghei KBG173 infected CD1 mice (Mus musculus) at 20 mg/kg/day subcutaneous dose; format: functional; parameters: scale not given: the % may be the effect or the level left
Plasmodium berghei [25] = assay: Antimalarial activity as reduced parasitaemia after 17 days against Plasmodium berghei KBG173 infected CD1 mice (Mus musculus) at 20 mg/kg/day subcutaneous dose; format: functional; parameters: scale not given: the % may be the effect or the level left
[26] = Cytotoxicity against human NCI60 cells; format: functional
Plasmodium berghei [27] = assay: Antimalarial activity as reduced parasitaemia at day 6 in Plasmodium berghei KBG173 infected CD1 mice (Mus musculus) at 20 mg/kg/day subcutaneous dose; format: functional; parameters: scale not given: the % may be the effect or the level left
Plasmodium berghei [28] = assay: Antimalarial activity as parasite-free survivors at day 31 of Plasmodium berghei KBG173 infected CD1 mice (Mus musculus) at 20 mg/kg/day peroral dose; format: functional, organism-based
Plasmodium berghei [29] = assay: Antimalarial activity as parasite-free survivors at day 31 of Plasmodium berghei KBG173 infected CD1 mice (Mus musculus) at 160 mg/kg/day subcutaneous dose; format: functional, organism-based
Plasmodium berghei [30] = assay: Antimalarial activity as parasite-free survivors at day 31 of Plasmodium berghei KBG173 infected CD1 mice (Mus musculus) at 20 mg/kg/day subcutaneous dose; format: functional, organism-based
Plasmodium berghei [31] = assay: Antimalarial activity as survival time in Plasmodium berghei KBG173 infected CD1 mice (Mus musculus) at 320 mg/kg/day peroral dose; format: functional; settings: route oral
Plasmodium berghei [32] = assay: Antimalarial activity as survival time against Plasmodium berghei KBG173 infected CD1 mice (Mus musculus) at 80 mg/kg/day peroral dose 3 - 5 days post infection; format: functional; settings: route oral
Plasmodium berghei [33] = assay: Antimalarial activity as survival time in Plasmodium berghei KBG173 infected CD1 mice (Mus musculus) at 20 mg/kg/day peroral dose; format: functional; settings: route oral
Plasmodium falciparum [34] = assay: microbe, parasite or virus in culture; settings: TM91C235
Description: Antimalarial activity against mefloquine, chloroquine and quinine-resistant Plasmodium falciparum TM91C235

Compound: O[C@@H](c1cc(C(F)(F)F)nc2c(C(F)(F)F)cccc12)[C@H]1CCCCN1 [MEFLOQUINE]
- Ratio (Plasmodium falciparum [1]): 1.71
- IC50 (Plasmodium falciparum [2]): 2.33 nM
- IC90 (Plasmodium falciparum [2]): 5 nM
- fold-lower IC90/IC50 ratio vs mefloquine (Plasmodium falciparum [3]): 1.5

Compound: CCCNC(=O)CC[C@@H](C)[C@H]1CC[C@H]2[C@@H]3[C@H](OC(C)=O)C[C@@H]4CC5(CC[C@]4(C)[C@H]3C[C@H](OC(C)=O)[C@]12C)OOC(C)(C)OO5
- half-life at 10 µM [4]: 24 min
- half-life at 10 µM [5]: 25 min
- IC50 (Plasmodium falciparum [6]): 7.4 nM
- IC90 (Plasmodium falciparum [6]): 16.2 nM
- IC50 (Plasmodium falciparum [7]): 18.1 nM
- IC90 (Plasmodium falciparum [7]): 29.2 nM

Compound: CC(=O)O[C@H]1C[C@H]2[C@@H]([C@H](OC(C)=O)C[C@@H]3CC4(CC[C@@]32C)OOC(C)(C)OO4)[C@@H]2CC[C@H]([C@H](C)CCC(=O)NCCN(C)C)[C@@]12C
- Survival (Plasmodium berghei [8]): 31 days
- Survival (Plasmodium berghei [9]): 25 days
- Survival (Plasmodium berghei [10]): 16 days
- Activity (Plasmodium berghei [11]): 2.36%
- Activity (Plasmodium berghei [12]): 1.9%
- Activity (Plasmodium berghei [13]): 1.4%
- Activity (Plasmodium berghei [14]): 0%
- Activity (Plasmodium berghei [15]): 0%
- Activity (Plasmodium berghei [16]): 0%
- Activity (Plasmodium berghei [17]): 0.004%
- Activity (Plasmodium berghei [18]): 15.48%
- Activity (Plasmodium berghei [19]): 3.9%
- Activity (Plasmodium berghei [20]): 12.53%
- Activity (Plasmodium berghei [21]): 0%
- Activity (Plasmodium berghei [22]): 0%
- Activity (Plasmodium berghei [23]): 0.032%
- Activity (Plasmodium berghei [24]): 8.72%
- Activity (Plasmodium berghei [25]): 26.8%
- GI50 [26]: 3390 nM
- LC50 [26]: 22400 nM
- TGI [26]: 10200 nM
- Activity (Plasmodium berghei [27]): 0.002%
- Ratio (Plasmodium falciparum [1]): 1.71
- half-life at 10 µM [4]: > 60 min
- half-life at 10 µM [5]: > 60 min
- Activity (Plasmodium berghei [28]): inactive
- Activity (Plasmodium berghei [29]): Active
- Activity (Plasmodium berghei [30]): inactive
- Survival (Plasmodium berghei [31]): 29 days
- Survival (Plasmodium berghei [32]): 14 days
- Survival (Plasmodium berghei [33]): 8 days
- IC50 (Plasmodium falciparum [34]): 7.16 nM
- IC90 (Plasmodium falciparum [34]): 19.8 nM
- IC50 (Plasmodium falciparum [6]): 11.6 nM
- IC90 (Plasmodium falciparum [6]): 26.2 nM
- IC50 (Plasmodium falciparum [7]): 9.79 nM
- IC90 (Plasmodium falciparum [7]): 16.8 nM

Compound: CC(=O)O[C@H]1C[C@H]2[C@@H]([C@H](OC(C)=O)C[C@@H]3CC4(CC[C@@]32C)OOC(C)(C)OO4)[C@@H]2CC[C@H]([C@H](C)CCC(N)=O)[C@@]12C
- GI50 [26]: 8710 nM
- LC50 [26]: 79400 nM
- TGI [26]: 34700 nM
- half-life at 10 µM [4]: > 60 min
- half-life at 10 µM [5]: > 60 min
- IC50 (Plasmodium falciparum [6]): 12.2 nM
- IC50 (Plasmodium falciparum [7]): 9.4 nM

Compound: CC(=O)O[C@H]1C[C@H]2[C@@H]([C@H](OC(C)=O)C[C@@H]3CC4(CC[C@@]32C)OOC(C)(C)OO4)[C@@H]2CC[C@H]([C@H](C)CCC(=O)NN)[C@@]12C
- IC50 (Plasmodium falciparum [2]): 7.03 nM
- IC90 (Plasmodium falciparum [2]): 19.5 nM
- IC50 (Plasmodium falciparum [34]): 28.5 nM
- IC90 (Plasmodium falciparum [34]): 38.1 nM
- IC50 (Plasmodium falciparum [6]): 28.1 nM
- IC90 (Plasmodium falciparum [6]): 46.3 nM
- IC50 (Plasmodium falciparum [7]): 16.4 nM
- IC90 (Plasmodium falciparum [7]): 22.9 nM

Compound: C[C@@H]1CC[C@H]2[C@@H](C)C(=O)O[C@@H]3O[C@@]4(C)CC[C@@H]1[C@]32OO4 [ARTEMISININ]
- IC90 (Plasmodium falciparum [2]): 13 nM
- IC90 (Plasmodium falciparum [34]): 13 nM
- IC50 (Plasmodium falciparum [6]): 9 nM
- IC90 (Plasmodium falciparum [6]): 12.8 nM
- IC50 (Plasmodium falciparum [7]): 6.7 nM
- IC90 (Plasmodium falciparum [7]): 11.5 nM

Compound: CC(=O)O[C@H]1C[C@H]2[C@@H]([C@H](OC(C)=O)C[C@@H]3CC4(CC[C@@]32C)OOC(C)(C)OO4)[C@@H]2CC[C@H]([C@H](C)CCC(=O)N(C)C)[C@@]12C
- GI50 [26]: 17000 nM
- LC50 [26]: 75900 nM
- TGI [26]: 41700 nM
- half-life at 10 µM [4]: 49 min
- half-life at 10 µM [5]: 17 min
- IC50 (Plasmodium falciparum [2]): 7.19 nM
- IC90 (Plasmodium falciparum [2]): 14 nM
- IC50 (Plasmodium falciparum [34]): 25.1 nM
- IC90 (Plasmodium falciparum [34]): 50.9 nM
- IC50 (Plasmodium falciparum [6]): 35.5 nM
- IC90 (Plasmodium falciparum [6]): 71.5 nM
- IC50 (Plasmodium falciparum [7]): 17.3 nM
- IC90 (Plasmodium falciparum [7]): 31.6 nM
